Measured values as given in patent US7700375B2, “Fluorescent labeling of specific protein targets in vitro and in vivo” (Valorisation-Recherche, LP, priority 2004, dated 2010).
One block for each molecule: values may come before it.

Key:
[1] = Fluorescence spectral properties of fluorogens and their ethanethiol adducts; format: physicochemical; details: for φ (quantum yield): rapid approximation method of reference 34
Procedure: For the application of this fluorogenic reaction to the detection of thiols and dithiols, two important criteria are the fluorescence intensity of the thiol addition product and the ratio of its fluorescence compared to its parent fluorogen. We studied the effect of electron withdrawing and donating substituants on these criteria by preparing the derivatives of fluorogen 4 shown in Scheme 1. Fluorogen 5, bearing an electron withdrawing ester group, was prepared according to a protocol similar to that used for fluorogen 4, but using an ester-substituted maleic anhydride derived by oxidation of dimethyl L-tartrate according to a published procedure.^31 Fluorogen 6 bears an electron donating methyl group and was obtained in similar yield by adaptation of the standard literature protocol,^25 using citraconic anhydride. The reaction of 5 and 6 with ethanethiol in DMSO led to the formation of thiol adducts 8 and 9, whose fluorescence was characterized as shown in Table 1. Even from this small series, certain tendencies are apparent. Increasing the electron donating capacity of the substituent appears to have a significant effect on the absorbance maximum corresponding to the wavelength of excitation, increasing by 37 nm from 8 to 9. Although the emission wavelength increases very slightly over the same series, the net effect on the Stokes shift is a significant decrease with increasing electron donating capacity of the substituent.
(§1) Comparison of the fluorescent properties^34 of the four different parent fluorogens (and their corresponding thiol adducts) studied herein (see Table 2) substantiates our retention of compounds 13 and 20 as candidates for further tests with proteins.
The following material were obtained from Aldrich and were used without further purification: 2-hydroxy-5-nitrobenzaldehyde, N-acetylglycine, maleic anhydride, p-nitrophenylacetic acid, L-aspartic acid dimethyl ester hydrochloride, citraconic anhydride, dimethyl L-tartrate, dimethyl malonate. All reactions were carried out under an atmosphere of dry nitrogen employing conventional bench-top techniques except for reactions with thiols. ^13C-NMR and ^1H-NMR spectra were recorded on AMXR400 or AMX300 spectrometers and were referenced to the residual proton or ^13C signal of the solvent. Mass spectra were determined by FAB+ ionization on an AutoSpecQ spectrometer at the Regional Mass Spectrometry Centre at the Université de Montréal. Infrared spectra were recorded on a Perkin-Elmer (FTIR) spectrometer. Melting points (uncorrected) were determined on a Unimelt Tomas-Hoover or on a Gallenkamp meting point apparatus. Fluorescence spectra were recorded using a Varian Cary Eclipse fluorimeter and gel electrophoresis was carried out on a SpectraPhoresis 100 apparatus.

[2] = Thiol addition reaction of fluorogens with ethanethiol (fluorescence increase)
Text: The fluorescence spectra obtained upon excitation at 350 nm before and after the reaction of ethanethiol with compound 4 are shown in FIG. 1.
Based on this observation, we reasoned that compounds 4 and 13 should also react efficiently with one equivalent of a dithiol bearing two sulfhydryl groups separated by an appropriate distance. […] That is, after fluorogen 4 undergoes an initial addition reaction with BMMB, the second addition reaction with the pendant sulfhydryl group of BMMB is intramolecular and presumably much faster (Scheme 5).
[formula] […] In the case of dithiol addition, this second addition reaction with a sulfhydryl group would be intramolecular, and presumably even faster.

[3] = Product study of reaction with 3-mercaptopropionic acid by capillary electrophoresis; details: up to 2 equivalents of 3-mercaptopropionic acid; CE
Text: Product studies carried out for the reaction of 4 with simple thiols support the hypothesis that the second addition reaction is faster than the first. Initial experiments involved the addition of ethanethiol to 4 and attempts to separate and characterize the dithiolated and monothiolated adducts. However, no significant peak corresponding to the putative monothiolated adduct could be isolated by flash chromatography, so an experiment was designed to facilitate the separation of the monothiolated and dithiolated adducts by capillary electrophoresis (CE, see Experimental Section). By using 3-mercaptopropionic acid as a simple thiol, we ensured that at basic pH, any monothiolated adduct would singly negatively charged, due to ionization of the carboxylate group, whereas the dithiolated product would be doubly negatively charged.
After reaction of 1 mM 1 with 0.25-3 mM 3-mercaptopropionic acid in DMSO-H2O 1.9 overnight, the fluorescence of the reaction mixture was measured. To this mixture was then added 3 equivalents of ethanethiol, converting all unreacted and monothiolated adducts to dithiolated adducts. […] Their relative concentrations were calculated by the areas under their peaks, recorded UV detection at 370 nm. […]

[4] = Temperature dependence of first-order rate constants of ethanethiol addition; details: 0.1 mM fluorogen, 2.0 mM ethanethiol in DMF, 10-40° C.
Procedure: First-order rate constants for the reaction of 0.1 mM 13 with 2.0 mM ethanethiol in DMF were also measured as a function of temperature from 10-40° C. Over this temperature range, the observed rate constants increased slightly with temperature, but varied by less than a factor of 2, and evaporation of ethanethiol was problematic at 40° C. For these reasons, precise quantitative analysis of the effect of temperature (for example, in the form of an Eyring plot) was not possible.

mCys-Fos = molecular target: T1, mCys-Fos (Homo sapiens, UniProt P01100, C204S); assay: Protein labeling in vitro, SDS-PAGE with UV illumination; format: biochemical; details: 0.242 mM protein, 0.5 mM of 20 or 0.05 mM of 13, 25° C. overnight
T1 construct: the C99S mutant of a fragment of Fos; His-tag (N); made in house; host or cells: XL1-blue E. coli
Procedure: (§2) As mentioned in the introduction, an α-helical protein was designed to bear two cysteine residues, separated by a distance complementary to that between the maleimide groups of the designated fluorogen. The protein chosen as a starting point for this design was the C99S mutant of a fragment of Fos,^21 a known α-helical protein^22 whose recombinant expression has been published.^23 Site-directed mutagenesis was then performed^20,35 to introduce a cysteine residue (L56C), separated by two turns of the α-helical motif from the native Cys49, positioning the protein's only two thiol groups approximately 10 Å apart.^36 Although at higher concentrations, Fos is known to form a homodimer,^22 the distance between the intermolecular cysteine residues in this putative homodimer would render their reaction with a single fluorogen molecule impossible. […]
(§3) Purified mCys-Fos and diCys-Fos were then tested in vitro for their ability to react with fluorogens 13 and 20. After incubation of 0.242 mM protein with 0.5 mM of 20 or 0.05 mM of 13 at 25° C. overnight, glycerol was added and the reaction mixtures were analyzed by SDS-PAGE using UV illumination and then Coomassie blue staining. […]

diCys-Fos = diCys-Fos (Homo sapiens, UniProt P01100, C204S/L161C); assay: as above; format: biochemical; design: the C99S mutant of a fragment of Fos; details: 0.242 mM protein, 0.5 mM of 20 or 0.05 mM of 13, 25° C. overnight
Procedure: as §2, §3

Solubility = format: physicochemical
Procedure: as §1
Finally, we wished to determine if fluorogens such as 13 and 20 were cytotoxic. […] Furthermore, even at 300 μM 20, the limit of its solubility in cell culture, 70% of COS cells were still viable (FIG. 8). […] The convenience of the application of this fluorescent labeling method is obvious from the low cytoxocity of 20, even at concentrations 30 times greater than those necessary for efficient labeling.

[5] = in DMSO, ratio of areas under fluorescence emission bands of fluorogen and its thiol adduct

Sequence of diCys-Fos (P01100 118-211 L161C/C204S limits assumed): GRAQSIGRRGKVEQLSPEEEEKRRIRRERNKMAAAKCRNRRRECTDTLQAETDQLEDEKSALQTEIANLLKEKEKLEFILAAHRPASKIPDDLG
T1 sequence (P01100 118-211 C204S limits assumed): as the sequence (P01100 118-211 L161C/C204S limits assumed) above, with C44L counted along it

Stokes shift ([1]; in DMSO): 121 nm
λexc ([1]; in DMSO): 336 nm
SMILES: CCSC1C(=O)N(c2ccc3oc(=O)c(N4C(=O)C(SCC)C(C(=O)OC)C4=O)cc3c2)C(=O)C1C(=O)OC (centres unmarked) [Compound 8, 3,6-Di-(3′-ethylthio-4′-methoxycarbonylsuccinimidyl)chromen-2-one]

Stokes shift ([1]; 10:90 DMSO: water): 76 nm
λem (emission band) ([1]; 10:90 DMSO: water): 400-550 nm
λem, wavelength corresponding to center of Full Width at Half Maximum of emission band ([1]; 10:90 DMSO: water): 460 nm
λexc ([1]; 10:90 DMSO: water): 384 nm
φ (quantum yield) ([1]; 10:90 DMSO: water): 0.006
IF Ratio ([1]; 10:90 DMSO: water, ratio of areas under emission bands of fluorogen and thiol adduct): 5.2
fluorescent labeling of mCys-Fos (mCys-Fos): is not
fluorescent labeling of diCys-Fos (diCys-Fos): efficiently fluorescently labeled
SMILES: O=C1C=CC(=O)N1c1ccc(-c2cc3cc(N4C(=O)C=CC4=O)ccc3oc2=O)cc1 [Compound 13, 6-Maleimidyl-3-p-maleimidylphenylchromen-2-one]
change in fluorescence on addition of ethanethiol ([2]; 3 mM ethanethiol, 1 mM fluorogen, 9:1 H2O:DMSO, over 3 hours): marked increase in fluorescence
equivalents of thiol at which fluorescence plateau was reached ([2]; ethanethiol): ~2.2 equivalents
formation of monothiolated adduct [3]: no monothiolated product was detectable
variation of observed first-order rate constants with temperature (factor) [4]: < 2

Stokes shift ([1]; 10:90 DMSO: water): 76 nm
λexc ([1]; 10:90 DMSO: water): 384 nm
φ (quantum yield) ([1]; 10:90 DMSO: water): 0.223
SMILES: CCSC1CC(=O)N(c2ccc(-c3cc4cc(N5C(=O)CC(SCC)C5=O)ccc4oc3=O)cc2)C1=O (centres unmarked) [Compound 14, 6-(3′-Ethylthiosuccinimidyl)-3-p-(3′-ethylthiosuccinimidyl)phenylchromen-2-one]

Stokes shift ([1]; neat DMSO): 63 nm
λem (emission band) ([1]; neat DMSO): 340-500 nm
λem, wavelength corresponding to center of Full Width at Half Maximum of emission band ([1]; neat DMSO): 391 nm
λexc ([1]; neat DMSO): 328 nm
φ (quantum yield) ([1]; neat DMSO): 1.70 × 10^−3
IF Ratio ([1]; neat DMSO, ratio of areas under emission bands of fluorogen and thiol adduct): 31
SMILES: O=C1C=CC(=O)N1c1cccc2c(N3C(=O)C=CC3=O)cccc12 [Compound 15, 1,5-Dimaleimidylnaphthalene]
solubility in water / aqueous DMSO (Solubility): insoluble in water, even upon the addition of up to 10% DMSO

The remaining lines, values behind:

SMILES: O=C1C=CC(=O)N1c1ccc2oc(=O)c(N3C(=O)C=CC3=O)cc2c1 [Compound 4, 3,6-Dimaleimidylchromen-2-one]
melting point: > 296 °C (dec.)

SMILES: COC(=O)C1=CC(=O)N(c2ccc3oc(=O)c(N4C(=O)C=C(C(=O)OC)C4=O)cc3c2)C1=O [Compound 5, 3,6-Di-(3′-methoxycarbonylmaleimidyl)chromen-2-one]
Stokes shift ([1]; in DMSO): 115 nm
λem (emission band) ([1]; in DMSO): 360-600 nm
λem, wavelength corresponding to center of Full Width at Half Maximum of emission band ([1]; in DMSO): 447 nm
λexc ([1]; in DMSO): 332 nm
IF Ratio [1, 5]: 2.7

SMILES: CC1=CC(=O)N(c2ccc3oc(=O)c(N4C(=O)C=C(C)C4=O)cc3c2)C1=O [Compound 6, 3,6-Di-(3′-methylmaleimidyl)chromen-2-one]
Stokes shift ([1]; in DMSO): 82 nm
λem (emission band) ([1]; in DMSO): 370-600 nm
λem, wavelength corresponding to center of Full Width at Half Maximum of emission band ([1]; in DMSO): 455 nm
λexc ([1]; in DMSO): 373 nm
IF Ratio [1, 5]: 3.6

SMILES: CCSC1C(=O)N(c2ccc3oc(=O)c(N4C(=O)C(C)C(SCC)C4=O)cc3c2)C(=O)C1C (centres unmarked) [Compound 9, 3,6-Di-(3′-ethylthio-4′-methylsuccinimidyl)chromen-2-one]
Stokes shift ([1]; in DMSO): 82 nm
λexc ([1]; in DMSO): 373 nm

SMILES: CCSC1CC(=O)N(c2cc3c4c(cc(N5C(=O)CC(SCC)C5=O)cc4c2)C(=O)N([C@@H](CC(=O)OC)C(=O)OC)C3=O)C1=O (stereo partly drawn) [Compound 21, N-(3,6-Di(3′-ethylthiosuccinimidyl)-1,8-naphthalyl)-L-aspartic acid dimethyl ester]
Stokes shift ([1]; 10:90 DMSO: water): 67 nm
λexc ([1]; 10:90 DMSO: water): 511 nm
fluorescence of ethanethiol adduct relative to parent fluorogen (factor) ([1]; adduct vs parent fluorogen (16 in DMSO)): 8.5
detectability of adduct fluorescence ([1]; ethanethiol adduct): easily detected at micromolar concentrations
